Laboratory results published in patent US20220041582A1, “ISOXAZOLINE COMPOUNDS FOR CONTROLLING INVERTEBRATE PESTS” (FMC Corporation, priority 2018, published 2022).
Where two headings read alike, the source gives them in different places.

How the values were obtained:
Type in all cases: in vivo
[1] = tested on: green peach aphid (Myzus persicae (Sulzer)); assay: Test E: control of green peach aphid through contact and/or systemic means; conditions: 144 h
Protocol: (§1) Formulation and Spray Methodology for Tests A-H
(§2) Test compounds were formulated using a solution containing 10% acetone, 90% water and 300 ppm Activator 90® non-ionic surfactant (Loveland Products, Loveland, Colo., USA). The formulated compounds were applied in 1 mL of liquid through an atomizer nozzle positioned 1.27 cm (0.5 inches) above the top of each test unit. Test compounds were sprayed at the rates indicated, and each test was replicated three times.
For evaluating control of green peach aphid (Myzus persicae (Sulzer)) through contact and/or systemic means, the test unit consisted of a small open container with a 12-15-day-old radish plant inside. This was pre-infested by placing on a leaf of the test plant 30-40 aphids on a piece of leaf excised from a culture plant (cut-leaf method). The aphids moved onto the test plant as the leaf piece desiccated. After pre-infestation, the soil of the test unit was covered with a layer of sand.
Test compounds were formulated and sprayed at 250, 50 and 10 ppm. After spraying of the formulated test compound, each test unit was allowed to dry for 1 hour and then a black, screened cap was placed on top. The test units were held for 6 days in a growth chamber at 19-21° C. and 50-70% relative humidity. Each test unit was then visually assessed for insect mortality.

[2] = tested on: cotton melon aphid (Aphis gossypii (Glover)); assay: Test F: control of cotton melon aphid through contact and/or systemic means; conditions: 144 h
Protocol: as §1, §2
[…] This was pre-infested with 30-40 insects on a piece of leaf according to the cut-leaf method, and the soil of the test unit was covered with a layer of sand.
Test compounds were formulated and sprayed at 250, 50 and 10 ppm. After spraying, the test units were maintained in a growth chamber for 6 days at 19° C. and 70% relative humidity. Each test unit was then visually assessed for insect mortality.

[3] = tested on: potato leafhopper (Empoasca fabae (Harris)); assay: Test D: control of potato leafhopper through contact and/or systemic means; conditions: 144 h
Protocol: as §1, §2
[…] White sand was added to the top of the soil, and one of the primary leaves was excised prior to application of the test compound.
Test compounds were formulated and sprayed at 250, 50 and 10 ppm. After spraying of the formulated test compound, the test units were allowed to dry for 1 hour before they were post-infested with 5 potato leafhoppers (18-to-21-day-old adults). A black, screened cap was placed on the top of the test unit, and the test units were held for 6 days in a growth chamber at 20° C. and 70% relative humidity. Each test unit was then visually assessed for insect mortality.

[4] = tested on: sweetpotato whitefly (Bemisia tabaci (Gennadius)); assay: Test G: control of sweetpotato whitefly through contact and/or systemic means; conditions: 312 h
Protocol: as §1, §2
For evaluating control of the sweetpotato whitefly (Bemisia tabaci (Gennadius)) through contact and/or systemic means, the test unit consisted of a small open container with a 12-14-day-old cotton plant inside. Prior to the spray application, both cotyledons were removed from the plant, leaving one true leaf for the assay. Adult whiteflies were allowed to lay eggs on the plant and then were removed from the test unit. Cotton plants infested with at least 15 eggs were submitted to the test for spraying.
Test compounds were formulated and sprayed at 250, 50 and 10 ppm. After spraying, the test units were allowed to dry for 1 hour. The cylinders were then removed, and the units were taken to a growth chamber and held for 13 days at 28° C. and 50-70% relative humidity. Each test unit was then visually assessed for insect mortality.

[5] = 10 ppm spray, 6 days, read-out: mortality
[6] = 50 ppm spray, 6 days, read-out: mortality

## O=C(NCC1CC1)c1ccc(C2=NOC(c3cccc(C(F)(F)F)c3)(C(F)(F)F)C2)c2ccncc12 (racemic) [Compound 17, N-(cyclopropylmethyl)-5-[4,5-dihydro-5-(trifluoromethyl)-5-[3-(trifluoromethyl)phenyl]-3-isoxazolyl]-8-isoquinolinecarboxamide]
[1]; [5]
  mortality at 10 ppm: ≥ 80%
[1]; [6]
  mortality at 50 ppm: ≥ 80%
[2]; [5]
  mortality at 10 ppm: ≥ 80%
[2]; [6]
  mortality at 50 ppm: ≥ 80%

## CC(C)(C)NC(=O)c1ccc(C2=NOC(c3cc(Cl)c(F)c(Cl)c3)(C(F)(F)F)C2)c2ccncc12 (stereo not drawn) [Compound 2, 5-[5-(3,5-dichloro-4-fluorophenyl)-4,5-dihydro-5-(trifluoromethyl)-3-isoxazolyl]-N-(1,1-dimethylethyl)-8-isoquinolinecarboxamide]
[3]
  mortality at 50 ppm: ≥ 80%
  mortality at 250 ppm: ≥ 80%
[1]
  mortality at 50 ppm: ≥ 80%
  mortality at 250 ppm: ≥ 80%
[2]
  mortality at 10 ppm: ≥ 80%
  mortality at 50 ppm: ≥ 80%
  mortality at 250 ppm: ≥ 80%
[4]
  mortality at 10 ppm: ≥ 50%
  mortality at 50 ppm: ≥ 50%
  mortality at 250 ppm: ≥ 50%

## O=C(NCC1CC1)c1ccc(C2=NOC(c3cc(Cl)c(F)c(Cl)c3)(C(F)(F)F)C2)c2ccncc12 (stereo not drawn) [Compound 3, N-(cyclopropylmethyl)-5-[5-(3,5-dichloro-4-fluorophenyl)-4,5-dihydro-5-(trifluoromethyl)-3-isoxazolyl]-8-isoquinolinecarboxamide]
[1]
  mortality at 10 ppm: ≥ 80%
  mortality at 50 ppm: ≥ 80%
[2]
  mortality at 10 ppm: ≥ 80%
  mortality at 50 ppm: ≥ 80%
[4]
  mortality at 10 ppm: ≥ 50%
  mortality at 50 ppm: ≥ 50%

## O=C(NCc1cnccn1)c1ccc(C2=NOC(c3cc(Cl)c(F)c(Cl)c3)(C(F)(F)F)C2)c2ccncc12 (stereo not drawn) [Compound 7]
[3]
  mortality at 50 ppm: ≥ 80%
[1]
  mortality at 50 ppm: ≥ 80%
[2]
  mortality at 50 ppm: ≥ 80%
[4]
  mortality at 50 ppm: ≥ 50%

## CSC[C@@H](C)NC(=O)c1ccc(C2=NOC(c3cc(Cl)c(F)c(Cl)c3)(C(F)(F)F)C2)c2ccncc12 (stereo partly drawn) [Compound 8]
[2]
  mortality at 50 ppm: ≥ 80%

## N#CC1(CNC(=O)c2ccc(C3=NOC(c4cc(Cl)c(F)c(Cl)c4)(C(F)(F)F)C3)c3ccncc23)CC1 (stereo not drawn) [Compound 10]
[3]
  mortality at 50 ppm: ≥ 80%
[1]
  mortality at 50 ppm: ≥ 80%
[2]
  mortality at 50 ppm: ≥ 80%
[4]
  mortality at 10 ppm: ≥ 50%
  mortality at 50 ppm: ≥ 50%

## C[S+]([O-])CCNC(=O)c1ccc(C2=NOC(c3cc(Cl)c(F)c(Cl)c3)(C(F)(F)F)C2)c2ccncc12 (stereo not drawn) [Compound 11]
[3]
  mortality at 10 ppm: ≥ 80%
  mortality at 50 ppm: ≥ 80%
[1]
  mortality at 50 ppm: ≥ 80%
[2]
  mortality at 50 ppm: ≥ 80%

## CS(=O)(=O)CCNC(=O)c1ccc(C2=NOC(c3cc(Cl)c(F)c(Cl)c3)(C(F)(F)F)C2)c2ccncc12 (stereo not drawn) [Compound 12]
[2]
  mortality at 50 ppm: ≥ 80%

## C[C@@H](NC(=O)c1ccc(C2=NOC(c3cc(Cl)c(F)c(Cl)c3)(C(F)(F)F)C2)c2ccncc12)c1ccccn1 (stereo partly drawn) [Compound 13]
[3]
  mortality at 10 ppm: ≥ 80%
  mortality at 50 ppm: ≥ 80%
[1]
  mortality at 10 ppm: ≥ 80%
  mortality at 50 ppm: ≥ 80%
[2]
  mortality at 10 ppm: ≥ 80%
  mortality at 50 ppm: ≥ 80%
[4]
  mortality at 10 ppm: ≥ 50%
  mortality at 50 ppm: ≥ 50%

## C[C@H](C[S+](C)[O-])NC(=O)c1ccc(C2=NOC(c3cc(Cl)c(F)c(Cl)c3)(C(F)(F)F)C2)c2ccncc12 (stereo partly drawn) [Compound 14]
[3]
  mortality at 50 ppm: ≥ 80%

## O=C(NC1CC1)c1ccc(C2=NOC(c3cccc(C(F)(F)F)c3)(C(F)(F)F)C2)c2ccncc12 (stereo not drawn) [Compound 16, N-cyclopropyl-5-[4,5-dihydro-5-(trifluoromethyl)-5-[3-(trifluoromethyl)phenyl]-3-isoxazolyl]-8-isoquinolinecarboxamide]
[1]; [6]
  mortality at 50 ppm: ≥ 80%

## CS(=O)(=O)CCNC(=O)c1ccc(C2=NOC(c3cccc(C(F)(F)F)c3)(C(F)(F)F)C2)c2ccncc12 (stereo not drawn) [Compound 19]
[2]; [6]
  mortality at 50 ppm: ≥ 80%
[4]; 50 ppm spray, 13 days, read-out: mortality
  mortality at 50 ppm: ≥ 50%

## CS(=O)(=O)N1CC(NC(=O)c2ccc(C3=NOC(c4cc(Cl)c(F)c(Cl)c4)(C(F)(F)F)C3)c3ccncc23)C1 (stereo not drawn) [Compound 21, 5-[5-(3,5-dichloro-4-fluorophenyl)-4,5-dihydro-5-(trifluoromethyl)-3-isoxazolyl]-N-[1-(methylsulfonyl)-3-azetidinyl]-8-isoquinolinecarboxamide]
[3]
  mortality at 50 ppm: ≥ 80%
[2]
  mortality at 50 ppm: ≥ 80%
[4]
  mortality at 50 ppm: ≥ 50%

## O=C(NC1CC1)c1ccc(C2=NOC(c3cc(Cl)c(F)c(Cl)c3)(C(F)(F)F)C2)c2ccncc12 (stereo not drawn) [Compound 23, N-cyclopropyl-5-[5-(3,5-dichloro-4-fluorophenyl)-4,5-dihydro-5-(trifluoromethyl)-3-isoxazolyl]-8-isoquinolinecarboxamide]
[3]
  mortality at 50 ppm: ≥ 80%
[1]
  mortality at 10 ppm: ≥ 80%
  mortality at 50 ppm: ≥ 80%
[2]
  mortality at 10 ppm: ≥ 80%
  mortality at 50 ppm: ≥ 80%

## C[C@@H](NC(=O)c1ccc(C2=NOC(c3cccc(C(F)(F)F)c3)(C(F)(F)F)C2)c2ccncc12)C(N)=O (stereo partly drawn) [Compound 25]
[2]; [6]
  mortality at 50 ppm: ≥ 80%

## O=C(NCC1CCCO1)c1ccc(C2=NOC(c3cc(Cl)c(F)c(Cl)c3)(C(F)(F)F)C2)c2ccncc12 (stereo not drawn) [Compound 26]
[2]
  mortality at 50 ppm: ≥ 80%
[4]
  mortality at 50 ppm: ≥ 50%

## CNC(=O)c1ccc(C2=NOC(c3cc(Cl)c(F)c(Cl)c3)(C(F)(F)F)C2)c2ccncc12 (stereo not drawn) [Compound 27]
[1]
  mortality at 50 ppm: ≥ 80%
[2]
  mortality at 50 ppm: ≥ 80%

## C[S+]([O-])CCNC(=O)c1ccc(C2=NOC(c3cccc(C(F)(F)F)c3)(C(F)(F)F)C2)c2ccncc12 (stereo not drawn) [Compound 30]
[2]; [6]
  mortality at 50 ppm: ≥ 80%

## C[C@@H](NC(=O)c1ccc(C2=NOC(c3cc(Cl)cc(C(F)(F)F)c3)(C(F)(F)F)C2)c2ccncc12)C(N)=O (stereo partly drawn) [Compound 40]
[2]
  mortality at 50 ppm: ≥ 80%

## O=C(NC1CSC1)c1ccc(C2=NOC(c3cc(Cl)c(F)c(Cl)c3)(C(F)(F)F)C2)c2ccncc12 (stereo not drawn) [Compound 43]
[3]
  mortality at 50 ppm: ≥ 80%
[2]
  mortality at 50 ppm: ≥ 80%

## CCNC(=O)c1ccc(C2=NOC(c3cc(Cl)c(F)c(Cl)c3)(C(F)(F)F)C2)c2ccncc12 (stereo not drawn) [Compound 46, 5-[5-(3,5-dichloro-4-fluorophenyl)-4,5-dihydro-5-(trifluoromethyl)-3-isoxazolyl]-N-ethyl-8 soquinolinecarboxamide]
[2]
  mortality at 10 ppm: ≥ 80%
  mortality at 50 ppm: ≥ 80%

## C[C@@H](NC(=O)c1ccc(C2=NOC(c3cc(Cl)c(F)c(Cl)c3)(C(F)(F)F)C2)c2ccncc12)C(=O)NCC(F)(F)F (stereo partly drawn) [Compound 56]
[1]
  mortality at 50 ppm: ≥ 80%
[2]
  mortality at 50 ppm: ≥ 80%
[4]
  mortality at 50 ppm: ≥ 50%

## C[C@H](CSCC(F)(F)F)NC(=O)c1ccc(C2=NOC(c3cc(Cl)c(F)c(Cl)c3)(C(F)(F)F)C2)c2ccncc12 (stereo partly drawn) [Compound 62]
[3]
  mortality at 50 ppm: ≥ 80%
[2]
  mortality at 50 ppm: ≥ 80%
[4]
  mortality at 50 ppm: ≥ 50%

## O=C(NC1CC1)c1ccc(C2=NOC(c3cc(Cl)cc(Cl)c3)(C(F)(F)F)C2)c2ccncc12 (stereo not drawn) [Compound 70, N-cyclopropyl-5-[5-(3,5-dichlorophenyl)-4,5-dihydro-5-(trifluoromethyl)-3-isoxazolyl]-8-isoquinolinecarboxamide]
[3]
  mortality at 50 ppm: ≥ 80%
[1]
  mortality at 50 ppm: ≥ 80%
[2]
  mortality at 10 ppm: ≥ 80%
  mortality at 50 ppm: ≥ 80%

## O=C(NC1CC1)c1ccc(C2=NO[C@@](c3cc(Cl)c(F)c(Cl)c3)(C(F)(F)F)C2)c2ccncc12 [Compound 82, S—N-cyclopropyl-5-[5-(3,5-dichloro-4-fluorophenyl)-4,5-dihydro-5-(trifluoromethyl)-3-isoxazolyl]-8-isoquinolinecarboxamide]
[3]
  mortality at 50 ppm: ≥ 80%
[1]
  mortality at 10 ppm: ≥ 80%
  mortality at 50 ppm: ≥ 80%
[2]
  mortality at 10 ppm: ≥ 80%
  mortality at 50 ppm: ≥ 80%
